# Measurements as given in US8802712B2, “Pyrazoloquinolines” (Merck Patent GmbH, priority 2010, dated 2014).
# Structures can show the parent of a compound that is named as a salt.
# Target: DNA-PK (Homo sapiens (Human), UniProt P78527)
# Experiment: DNA-PK/Biochemical Assay (FlashPlate kinase assay)
# Conditions: 5 μM ATP, 90 min, room temperature
# Procedure: The kinase assay was carried out in streptavidin-coated […] microtitre FlashPlates®. To this end, 1.5 μg of the DNA-PK/protein complex and 100 ng of biotinylated substrate, such as, for example, […] biotin-NH2 (“biotin-DNA-PK peptide”), in a total volume of 36.5 μl (34.25 mM HEPES/KOH, 7.85 mM Tris-HCl, 68.5 mM KCl, 5 μM ATP, 6.85 mM MgCl2, 0.5 mM EDTA, 0.14 mM EGTA, 0.69 mM DTT, pH 7.4), were incubated at room temperature for 90 min with 500 ng of DNA from calf thymus, 0.1 μCi of 33P-ATP and 1.8% of DMSO per well with or without the test compound. The reaction was stopped using 50 μl/well of 200 mM EDTA. After incubation for a further 30 min at room temperature, the liquid was removed. Each well was washed three times with 100 μl of 0.9% sodium chloride solution. A non-specific reaction (blank value) was determined using 10 μM of a proprietary kinase inhibitor. The radioactivity measurement was carried out by means of a TopCount. IC50 values were calculated in RS1. • Literature: Kashishian et al. (2003) Molecular Cancer Therapeutics 1257.
row,Structure (SMILES),IC50 [nM]
1,"COc1cc2ncc3c(c(-c4ccc(C#N)cc4)nn3C)c2cc1OCc1cccc(CN)c1 [Compound 32, 4-[8-(3-Aminomethyl-benzyloxy)-7-methoxy-3-methyl-3H-pyrazolo[3,4-c]-quinolin-1-yl]benzonitrile hydrochloride]",100 to 500
2,"COc1cc2ncc3c(c(-c4ccc(C#N)cc4)nn3C)c2cc1OCc1ccccc1C#N [Compound 14, 4-[8-(2-Cyanobenzyloxy)-7-methoxy-3-methyl-8-3H-pyrazolo[3,4-c]quinolin-1-yl]-benzonitrile]",100 to 500
3,"COc1cc2ncc3c(c(-c4ccc(C#N)cc4)nn3C)c2cc1OCc1ccnc(C#N)c1 [Compound 38, 4-[1-(4-Cyanophenyl)-7-methoxy-3-methyl-3H-pyrazolo[3,4-c]quinolin-8-yl-oxymethyl]pyridine-2-nitrile]",100 to 500
4,"COc1cc2ncc3c(c(-c4ccc(C#N)cc4)nn3C)c2cc1OC(C)(C(=O)O)c1ccccc1 (centres unmarked) [Compound 22, 2-[1-(4-Cyanophenyl)-7-methoxy-3-methyl-3H-pyrazolo[3,4-c]quinolin-8-yloxy]-2-phenylpropanoic acid]",> 500
5,"COc1cc2ncc3c(c(-c4ccc(C#N)cc4)nn3C)c2cc1OCc1ccncc1 [Compound 11, 4-[7-Methoxy-3-methyl-8-(pyridin-4-ylmethoxy)-3H-pyrazolo[3,4-c]quinolin-1-yl]-benzonitrile]",< 100
6,"COC(=O)c1cc(-c2[nH]nc3cnc4cc(OC)c(OC)cc4c23)ccc1C#N [Compound 72, 2-Cyano-5-(7,8-dimethoxy-3H-pyrazolo[3,4-c]quinolin-1-yl)benzoic acid methyl ester]",< 100
7,"CCn1nc(-c2ccc(C#N)cc2F)c2c3cc(OC)c(OC)cc3ncc21 [Compound 57, 4-(3-Ethyl-7,8-dimethoxy-3H-pyrazolo[3,4-c]quinolin-1-yl)-3-fluorobenzonitrile]",100 to 500
8,"COC(=O)C(Oc1cc2c(cc1OC)ncc1c2c(-c2ccc(C#N)cc2)nn1C)c1ccc(F)cc1 (centres unmarked) [Compound 18, Methyl 1-(4-cyanophenyl)-7-methoxy-3-methyl-3H-pyrazolo[3,4-c]quinolin-8-yloxy]-(4-fluorophenyl)-acetate]",100 to 500
9,"COc1cc2ncc3c(c(-c4ccc(C#N)cc4)nn3C)c2cc1OC(C(=O)NCCS(N)(=O)=O)c1ccc(F)cc1 (centres unmarked) [Compound 52, 2-[1-(4-Cyano-phenyl)-7-methoxy-3-methyl-3H-pyrazolo-[3,4-c]quinolin-8-yl-oxy]-2-(4-fluoro-phenyl)-N-(2-sulfamoylethyl)-acetamide]",100 to 500
10,"COc1cc2ncc3c(c(-c4ccc(C#N)cc4)nn3C)c2cc1O[C@H](C(N)=O)c1ccc(F)cc1 [Compound 10, (S)-2-[1-(4-Cyanophenyl)-7-methoxy-3-methyl-3H-pyrazolo[3,4-c]quinolin-8-yloxy]-2-(4-fluorophenyl)-acetamide]",< 100
11,"COc1cc2ncc3c(c(-c4ccc(C#N)cc4)nn3C)c2cc1OCc1cnc2[nH]ccc2c1 [Compound 30, 4-[7-Methoxy-3-methyl-8-(1H-pyrrolo[2,3-b]pyridin-5-ylmethoxy)-3H-pyrazolo-[3,4-c]quinolin-1-yl]-benzonitrile]",100 to 500
12,"COc1cc2ncc3c(c(-c4ccc(C#N)cc4)nn3C)c2cc1OC(C(=O)NC(=N)N)c1ccc(F)cc1 (centres unmarked) [Compound 54, N-[2-[1-(4-Cyano-phenyl)-7-methoxy-3-methyl-3H-pyrazolo-[3,4-c]quinolin-8-yl-oxy]-2-(4-fluoro-phenyl)acetyl]-guanidine]",< 100
13,"COc1cc2ncc3c(c(-c4ccc(C#N)cc4)nn3C)c2cc1OP(=O)(O)c1ccccc1 [Compound 25, 1-(4-Cyanophenyl)-7-methoxy-3-methyl-3H-pyrazolo[3,4-c]quinolin-8-yl phenylphosphonate]",100 to 500
14,"COc1cc2ncc3c(c(-c4ccc(-c5ccn[nH]5)cc4)nn3C)c2cc1-c1cn[nH]c1 [Compound 88, 7-Methoxy-3-methyl-8-(1H-pyrazol-4-yl)-1-[4-(2H-pyrazol-3-yl)phenyl]-3H-pyrazolo[3,4-c]quino-line]",< 100
15,"COc1cc2ncc3c(c(-c4ccc(C#N)cc4)nn3CC(N)=O)c2cc1OC [Compound 68, 2-[1-(4-Cyanophenyl)-7,8-dimethoxypyrazolo[3,4-c]-quinolin-3-yl]acetamide]",100 to 500
16,"C=CCn1nc(-c2ccc(C#N)cc2)c2c3cc(OC)c(OC)cc3ncc21 [Compound 63, 4-(3-Allyl-7,8-dimethoxy-3H-pyrazolo[3,4-c]quinolin-1-yl)-benzonitrile]",100 to 500

# Further lines, results first:
row,IC50 [nM],Structure (SMILES)
1,< 100,"COc1cc2ncc3c(c(-c4ccc(C#N)cc4F)nn3C)c2cc1OC(C(N)=O)c1ccc(F)cc1 (centres unmarked) [Compound 23, 2-[1-(4-Cyano-2-fluoro-phenyl)-7-methoxy-3-methyl-3H-pyrazolo[3,4-c]quinolin-8-yloxy]-2-(4-fluorophenyl)-acetamide]"
2,100 to 500,"COc1cc2ncc3c(c(-c4ccc(C#N)cc4)nn3C)c2cc1OC(C(=O)NOCC#N)c1ccc(F)cc1 (centres unmarked) [Compound 51, N-Cyanomethoxy-2-[1-(4-cyanophenyl)-7-methoxy-3-methyl-3H-pyrazolo[3,4-c]-quinolin-8-yloxy]-2-(4-fluorophenyl)-acetamide]"
3,100 to 500,"COc1cc2ncc3c(c(-c4ccc(C#N)cc4)nn3C(C)C)c2cc1OC [Compound 60, 4-(3-Isopropyl-7,8-dimethoxy-3H-pyrazolo[3,4-c]quinolin-1-yl)benzonitrile]"
4,< 100,"COc1cc2ncc3c(c(-c4ccc(C#N)cc4)nn3C)c2cc1OC [Compound 2, 4-(7,8-Dimethoxy-3-methyl-3H-pyrazolo-[3,4-c]quinolin-1-yl)-benzonitrile]"
5,100 to 500,"COc1cc2ncc3c(c(-c4ccc(C#N)cc4)nn3C)c2cc1OC(F)(F)c1ccccc1 [Compound 17, 4-[8-(Difluorophenyl-methoxy)-7-methoxy-3-methyl-3H-pyrazolo[3,4-c]-quinolin-1-yl]benzonitrile]"
6,100 to 500,"COc1cc2ncc3c(c(-c4ccc(C#N)cc4)nn3C#N)c2cc1OC [Compound 65, 1-(4-Cyanophenyl)-7,8-dimethoxypyrazolo[3,4-c]-quinoline-3-carbonitrile]"
7,> 500,"COc1cc2ncc3c(c(-c4ccc(C#N)cc4)nn3C)c2cc1OCc1cc2ccccc2s1 [Compound 37, 4-[8-(Benzo[b]thiophen-2-ylmethoxy)-7-methoxy-3-methyl-3H-pyrazolo[3,4-c]-quinolin-1-yl]benzonitrile]"
8,< 100,"COc1cc2ncc3c(c(-c4ccc(C#N)cc4)nn3C)c2cc1OCc1cccnc1 [Compound 12, 4-[7-Methoxy-3-methyl-8-(pyridin-3-ylmethoxy)-3H-pyrazolo[3,4-c]quinolin-1-yl]-benzonitrile]"
9,< 100,"COc1cc2ncc3c(c(-c4ccc(C#N)cc4)nn3CC#N)c2cc1OC [Compound 66, 4-(3-Cyanomethyl-7,8-dimethoxy-3H-pyrazolo[3,4-c]-quinolin-1-yl)benzonitrile]"
10,< 100,"COc1cc2ncc3[nH]nc(-c4ccc(C#N)c(Cl)c4)c3c2cc1OC [Compound 7, 2-Chloro-4-(7,8-dimethoxy-3H-pyrazolo-[3,4-c]quinolin-1-yl)-benzonitrile]"
11,< 100,"COc1cc2ncc3c(c(-c4ccc(C#N)cc4)nn3C)c2cc1OCc1ccc(CO)cc1 [Compound 27, 4-[8-(4-Hydroxymethyl-benzyloxy)-7-methoxy-3-methyl-3H-pyrazolo[3,4-c]-quinolin-1-yl]benzonitrile]"
12,< 100,"COc1cc2ncc3[nH]nc(-c4ccc(C#N)cc4)c3c2cc1OC [Compound 1, 4-(7,8-Dimethoxy-3H-pyrazolo[3,4-c]quinolin-1-yl)benzonitrile]"
13,> 500,"COc1cc2c(cc1OC(F)F)ncc1c2c(-c2ccc(C#N)cc2)nn1C [Compound 26, 4-(7-Difluoromethoxy-8-methoxy-3-methyl-3H-pyrazolo[3,4-c]quinolin-1-yl)-benzonitrile]"
14,< 100,"COc1cc2ncc3c(c(-c4ccc(C#N)cc4)nn3C)c2cc1OCc1ccc(F)cc1 [Compound 15, 4-[8-(4-Fluorobenzyloxy)-7-methoxy-3-methyl-3H-pyrazolo[3,4-c]quinolin-1-yl]-benzonitrile]"
15,< 100,"COc1cc2ncc3c(c(-c4ccc(C#N)cc4)nn3C)c2cc1O [Compound 5, 4-(8-Hydroxy-7-methoxy-3-methyl-3H-pyrazolo-[3,4-c]quinolin-1-yl)-benzonitrile]"
16,< 100,"COc1cc2ncc3n[nH]c(-c4ccc(C#N)c(C(=O)O)c4)c3c2cc1OC [Compound 73, 2-Cyano-5-(7,8-dimethoxy-3H-pyrazolo[3,4-c]quinolin-1-yl)benzoic acid]"
17,> 500,"COc1cc2ncc3c(c(-c4ccc(C#N)cc4)nn3C)c2cc1OCc1cccc(CN2CCN(C)CC2)c1 [Compound 44, 4-{7-Methoxy-3-methyl-8-[3-(4-methylpiperazin-1-yl-methyl)benzyloxy]-3H-pyrazolo[3,4-c]quinolin-1-yl}-benzonitrile]"
18,< 100,"COCCNC(=O)C(Oc1cc2c(cc1OC)ncc1c2c(-c2ccc(C#N)cc2)nn1C)c1ccc(F)cc1 (centres unmarked) [Compound 55, 2-[1-(4-Cyano-phenyl)-7-methoxy-3-methyl-3H-pyrazolo-[3,4-c]quinolin-8-yloxy]-2-(4-fluoro-phenyl)-N-(2-methoxyethyl)-acetamide]"
19,100 to 500,"COc1cc2ncc3c(c(-c4ccc(C#N)cc4)nn3C)c2cc1OCc1cccc(-c2csc(C)n2)c1 [Compound 45, 4-{7-Methoxy-3-methyl-8-[3-(2-methylthiazol-4-yl)-benzyloxy]-3H-pyrazolo-[3,4-c]quinolin-1-yl}-benzonitrile]"
